Experimental data from US12391698B2, “Substituted piperidines and piperazines and methods for the treatment of CNS disorders” (SUVEN LIFE SCIENCES LIMITED, priority 2022, dated 2025).
Counter-ions that a name gives are not always drawn. Values belong to the molecule of their own block, whether it stands above or below them.

How the values were obtained:
[1] = target: T1, cloned human 5-HT1A receptor (Homo sapiens, UniProt P08908); assay: Determination of Ki at 5-HT1A receptor (radioligand binding, [3H]-8-Hydroxy DPAT); settings: HEK293-EBNA recombinant cells; [3H]-8-Hydroxy DPAT 0.8 nM; read-out: Ki h5-HT1A
T1 construct: expressed in transfected cells; host or cells: HEK293-EBNA
T1 sequence (P08908 1-422): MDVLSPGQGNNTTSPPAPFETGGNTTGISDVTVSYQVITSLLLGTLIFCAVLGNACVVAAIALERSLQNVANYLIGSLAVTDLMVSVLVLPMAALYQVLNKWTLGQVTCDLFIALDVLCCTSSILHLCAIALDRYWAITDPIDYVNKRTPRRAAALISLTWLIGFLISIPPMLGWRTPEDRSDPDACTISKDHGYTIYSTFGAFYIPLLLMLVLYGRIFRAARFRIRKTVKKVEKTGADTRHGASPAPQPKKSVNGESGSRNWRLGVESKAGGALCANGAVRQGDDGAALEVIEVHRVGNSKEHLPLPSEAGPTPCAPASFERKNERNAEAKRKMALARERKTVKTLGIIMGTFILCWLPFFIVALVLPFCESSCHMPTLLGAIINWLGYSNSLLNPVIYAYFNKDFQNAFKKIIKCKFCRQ
Experimental: (§1) Compounds were tested according to the following procedure.
(§2) • Receptor source: Recombinant mammalian cells (HEK293-EBNA) • Radioligand: [^3H]-8-Hydroxy DPAT (200 Ci/mmol) • Final ligand concentration: 0.8 nM • Non-specific determinant: 0.1 mM U92016A • Reference compound: U92016A • Positive control: U92016A Incubation Conditions:
(§3) Reactions were carried out in buffer with pH 7.4 containing 50 mM Tris-HCl, 0.5 mM EDTA, 10 mM MgSO4, 0.1% Ascorbic acid for 2 h at r.t. The reaction was terminated by rapid vacuum filtration onto the glass fiber filters. Radioactivity trapped onto the filters was determined and compared to the control values in order to ascertain any interactions of the test compound(s) with cloned human 5-HT1A receptor binding site.

[2] = target: T2, cloned human 5-HT2A receptor (Homo sapiens, UniProt P28223); assay: Determination of Ki at 5-HT2A receptor (radioligand binding, [3H]-Ketanserine); settings: CHO-K1 recombinant cells; [3H]-Ketanserine 1.25 nM; read-out: Ki h5-HT2A
T2 construct: expressed in transfected cells; host or cells: CHO-K1
T2 sequence (P28223 whole entry): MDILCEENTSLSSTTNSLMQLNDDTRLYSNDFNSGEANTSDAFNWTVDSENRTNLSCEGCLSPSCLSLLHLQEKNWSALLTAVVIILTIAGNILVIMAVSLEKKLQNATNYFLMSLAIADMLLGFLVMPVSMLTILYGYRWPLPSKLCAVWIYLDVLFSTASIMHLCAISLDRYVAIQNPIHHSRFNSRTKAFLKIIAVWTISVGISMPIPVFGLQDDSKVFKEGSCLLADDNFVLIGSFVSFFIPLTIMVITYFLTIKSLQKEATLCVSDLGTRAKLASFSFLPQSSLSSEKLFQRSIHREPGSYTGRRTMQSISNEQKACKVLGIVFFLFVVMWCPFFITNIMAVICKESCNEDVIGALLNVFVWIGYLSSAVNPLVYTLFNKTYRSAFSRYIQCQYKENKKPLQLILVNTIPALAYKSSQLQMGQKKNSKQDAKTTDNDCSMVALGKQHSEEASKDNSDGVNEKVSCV
Experimental: as §1
as §2, with “(CHO-K1)” for “(HEK293-EBNA)”, “[^3H]-Ketanserine (41.9” for “[^3H]-8-Hydroxy DPAT (200”, “1.25” for “0.8”, “1-Napthyl piperazine (1-NP)” for “U92016A”
as §3, with “4” for “0.5”, “CaCl2),” for “EDTA, 10 mM MgSO4,”, “1” for “2”, “5-HT2A” for “5-HT1A”

[3] = target: cloned human SERT receptor (Homo sapiens, UniProt P31645); assay: Determination of Ki at SERT receptor (SPA binding, [3H]-Citalopram); settings: HEK293 recombinant cells; [3H]-Citalopram 2 nM; cells printed in μM; read-out: Ki hSERT
cloned human SERT receptor, sequence (P31645 whole entry): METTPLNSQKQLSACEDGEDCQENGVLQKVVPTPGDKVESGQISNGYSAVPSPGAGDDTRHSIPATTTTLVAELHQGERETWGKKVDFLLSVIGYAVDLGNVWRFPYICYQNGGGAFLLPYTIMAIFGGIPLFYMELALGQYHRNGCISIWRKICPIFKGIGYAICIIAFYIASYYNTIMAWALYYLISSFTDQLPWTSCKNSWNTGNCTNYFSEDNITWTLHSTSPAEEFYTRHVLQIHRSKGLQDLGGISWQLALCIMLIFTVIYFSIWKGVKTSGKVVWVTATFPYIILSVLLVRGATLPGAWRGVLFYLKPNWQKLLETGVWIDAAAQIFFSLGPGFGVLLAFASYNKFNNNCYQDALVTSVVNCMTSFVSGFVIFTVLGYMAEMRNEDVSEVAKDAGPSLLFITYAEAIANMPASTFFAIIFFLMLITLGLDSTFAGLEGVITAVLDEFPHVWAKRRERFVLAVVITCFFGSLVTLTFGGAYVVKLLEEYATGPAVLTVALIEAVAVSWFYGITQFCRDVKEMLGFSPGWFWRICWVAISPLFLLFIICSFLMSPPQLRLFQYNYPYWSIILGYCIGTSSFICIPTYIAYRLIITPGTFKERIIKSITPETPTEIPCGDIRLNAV
Experimental: as §1
• Receptor source: Recombinant mammalian cells (HEK293) • Radioligand: [^3H]-Citalopram (80.8 Ci/mmol) • Final ligand concentration: 2 nM • Non-specific determinant: 0.1 mM Venlafaxine • Reference compound: Venlafaxine • Positive control: Venlafaxine Incubation Conditions:
Reactions were carried out in buffer with pH 7.4 containing 50 mM Tris-HCl, 150 mM NaCl, 5 mM KCl and scintillation proximity assay (SPA) beads (0.1 mg/well) for 3 h at r.t. Radioactivity proximal to SPA beads was determined by scintillation proximity assay and compared to the control values in order to ascertain any interactions of the test compound(s) with cloned human SERT receptor binding site.
Reference: Journal of Pharmacology and Experimental Therapeutics, 1987, 242 (1), 364-371.

[4] = target: T3, hD2S (cloned human dopamine D2S receptor) (Homo sapiens, UniProt P14416); assay: Determination of Ki at D2S receptor (radioligand binding, [3H]-Raclopride); settings: CHO-K1 recombinant cells; [3H]-Raclopride 4 nM; read-out: Ki hD2S
T3 construct: expressed in transfected cells; host or cells: CHO-K1
T3 sequence (P14416 1-414 isoform P14416-2): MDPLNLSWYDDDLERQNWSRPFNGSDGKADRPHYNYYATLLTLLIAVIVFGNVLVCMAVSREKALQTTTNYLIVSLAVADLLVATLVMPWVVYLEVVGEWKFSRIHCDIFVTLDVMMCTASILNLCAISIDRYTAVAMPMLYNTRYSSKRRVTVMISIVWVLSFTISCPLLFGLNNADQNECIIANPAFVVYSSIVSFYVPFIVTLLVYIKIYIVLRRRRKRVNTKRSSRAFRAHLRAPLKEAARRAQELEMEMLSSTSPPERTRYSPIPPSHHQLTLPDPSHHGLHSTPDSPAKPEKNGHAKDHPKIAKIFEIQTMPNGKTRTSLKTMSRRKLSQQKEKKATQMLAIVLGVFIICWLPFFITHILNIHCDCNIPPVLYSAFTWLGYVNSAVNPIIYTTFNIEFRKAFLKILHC
Experimental: as §1
• Receptor source: Recombinant mammalian cells (CHO-K1) • Radioligand: [^3H]-Raclopride (80.8 Ci/mmol) • Final ligand concentration: 4 nM • Non-specific determinant: 0.1 mM Haloperidol • Reference compound: Haloperidol • Positive control: Haloperidol Incubation Conditions:
as §3, with “120” for “0.5”, “NaCl, 5” for “EDTA, 10”, “KCl, 5 mM MgCl2, 1 mM EDTA” for “MgSO4, 0.1% Ascorbic acid”, “dopamine […]” for “5-HT1A”

[5] = Rodent pharmacokinetic study; type: in vivo, Male Wistar rats; settings: rat, plasma, mean ± S.D, n = 3
Experimental: Male Wistar rats (260±50 g) were used as experimental animals. Animals were housed individually in polypropylene cage. Two days prior to study, male Wistar rats were anesthetized with isoflurane for surgical placement of jugular vein catheter. Rats were randomly divided for oral (3 mg/kg) and intravenous (1 mg/kg) dosing (n=3/group) and fasted overnight before oral dosing (p.o.). However, food and water were provided ad libitum to the rats allocated for intravenous dosing.
At pre-determined time points, blood samples were collected through jugular vein and replenished with an equivalent volume of normal saline. Collected blood was transferred into a labeled eppendorf tube containing 10 μL of heparin as an anticoagulant. Typically blood samples were collected at 0.08, 0.25, 0.5, 1, 2, 4, 6, 8, and 24 h post dose. Blood samples were centrifuged at 4000 rpm for 10 min. Plasma was separated and stored frozen at −80° C. until analysis. The concentrations of the test compounds were quantified in plasma by qualified LC-MS/MS method using suitable extraction technique. The test compounds were quantified in the calibration range around 1-1000 ng/mL in plasma. Study samples were analyzed using calibration samples in the batch and quality control samples spread across the batch.
Pharmacokinetic parameters Cmax, AUCt, t1/2. Clearance and Bioavailability (F) were calculated using standard non-compartmental model by using Phoenix WinNonlin 6.0.4 version software package.

[6] = Rodent brain penetration study; type: in vivo; settings: rat, brain/plasma, po, fed male Wistar rats, 3 mg/kg p.o., mean ± S.D, n = 3, read-out: Rat Brain Penetration (Cbrain/Cplasma) at 3 mg/kg, p.o. @ 1 h
Experimental: Male Wistar rats (260±40 g) were used as experimental animals. Three animals were housed in each cage. Animals were given water and food ad libitum throughout the experiment and maintained on a 12 h light/dark cycle.
Brain penetration was determined in discrete manner in rats. One day prior to dosing, male Wistar rats were acclimatized and randomly grouped according to their body weight. At each time point (0.50, 1 and 2 h), n=3 animals were used.
The test compounds were suitably preformulated and administered orally at (free base equivalent) 3 mg/kg. Blood samples were removed via cardiac puncture under isoflurane anesthesia. The animals were sacrificed to collect brain tissue. Plasma was separated and brain samples were homogenized. Plasma and brain homogenates were stored frozen at −20° C. until analysis. The concentrations of the test compounds in plasma and brain were determined using LC-MS/MS method.
The test compounds were quantified in plasma and brain homogenate by qualified LC-MS/MS method using suitable extraction technique in the calibration range of 1-500 ng/mL. Study samples were analyzed using calibration samples in the batch and quality control samples spread across the batch. Extent of brain-plasma ratio (Cbrain/Cplasma) was calculated.

Male Sprague Dawley rats = assay: Amphetamine-induced hyperlocomotion; type: in vivo, rat; settings: 3 mg/kg, p.o., dosed 30 min prior to trial
Experimental: Male Sprague Dawley rats of 230-280 g body weight were used. Rats were weighed and randomized according to their body weights. Following day, the rats were brought to the laboratory 1 h prior to test. In the morning session, rats were habituated to open field arena for 15 min. Test compound/vehicle and amphetamine/vehicle were administered 30 min prior to the trial. After the post-dose interval, rats were placed in the open field and locomotion was recorded for a period of 15 min. Amphetamine-induced hyperlocomotion models positive symptoms of schizophrenia.

Rats = assay: Tardive dyskinesia test (vacuous chewing movements and tongue protrusions); type: in vivo, rat; settings: 38 mg/kg, i.m. single dose, scored weekly for 4 weeks
Experimental: Rats weighing 200-230 g were acclimatized to the plexiglass observation cages (30×20×30 cm) equipped with mirrors for 5 min. After acclimatization, basal vacuous chewing movements (VCMs) and tongue protrusions (TPs) of the rats were quantified manually for 5 min. Rats were randomized based on the basal readings. Rats received a single dose of sesame oil (vehicle treatment) or haloperidol decanoate (38 mg/kg, i.m. positive control). Example-2, 10 mg/kg, p.o. ([…]) was administered for 4 weeks. VCMs and TPs were scored on weekly basis for 4 weeks. Tardive dyskinesia is a side effect of antipsychotic medications.

[7] = intravenous (bolus) 1 mg/kg, male Wistar rats
[8] = oral (gavage) 3 mg/kg, fasted male Wistar rats

Compound: O=C1C[C@H]2CCCN2C(=O)N1C[C@H]1CCCC[C@H]1CN1CCN(c2nsc3ccccc23)CC1 [Example 27, 2-[2-(4-Benzo[d]isothiazol-3-yl-piperazin-1-ylmethyl)-cyclohexylmethyl]-tetrahydro-pyrrolo[1,2-c]pyrimidine-1,3-dione oxalate]
Ki [1]: 4.7 nM
Ki [2]: 2 nM
Ki [3]: > 10 µM
Ki [4]: 0.2 nM
AUC(0-t) [5, 7]: 360 ± 10 ng·h/mL
clearance [5, 7]: 45 ± 1.3 mL/min/kg
half-life [5, 7]: 2.4 ± 0.4 h
bioavailability ([5]; oral 3 mg/kg vs intravenous 1 mg/kg, male Wistar rats, read-out: F (Bioavailability)): 16 ± 8%
AUC(0-t) [5, 8]: 173 ± 92 ng·h/mL
Cmax [5, 8]: 186 ± 109 ng/mL
half-life [5, 8]: 1.8 ± 0.1 h
Kp at 1 h [6]: 1.21 ± 0.13
Inference, amphetamine antagonism (hyperlocomotion) (Male Sprague Dawley rats): Active

Inference, tardive dyskinesia test (VCMs and TPs vs vehicle group) (Rats): Increased number of VCMs and TPs
Compound: CCCCCCCCCC(=O)OC1(c2ccc(Cl)cc2)CCN(CCCC(=O)c2ccc(F)cc2)CC1 [Haloperidol decanoate, reference compound]
